# Results as given in patent publication US20240360126A1, “PYRAZOLO[3,4-B]PYRIDINE COMPOUNDS FOR THE TREATMENT OF AUTOIMMUNE DISEASE” (Hoffmann-La Roche Inc., priority 2021, published 2024).
# Target: T1, human TLR7 (Homo sapiens, UniProt Q9NYK1)
# T1 construct: host or cells: HEK293 (HEK-Blue hTLR7)
# T1 sequence (Q9NYK1 27-1049): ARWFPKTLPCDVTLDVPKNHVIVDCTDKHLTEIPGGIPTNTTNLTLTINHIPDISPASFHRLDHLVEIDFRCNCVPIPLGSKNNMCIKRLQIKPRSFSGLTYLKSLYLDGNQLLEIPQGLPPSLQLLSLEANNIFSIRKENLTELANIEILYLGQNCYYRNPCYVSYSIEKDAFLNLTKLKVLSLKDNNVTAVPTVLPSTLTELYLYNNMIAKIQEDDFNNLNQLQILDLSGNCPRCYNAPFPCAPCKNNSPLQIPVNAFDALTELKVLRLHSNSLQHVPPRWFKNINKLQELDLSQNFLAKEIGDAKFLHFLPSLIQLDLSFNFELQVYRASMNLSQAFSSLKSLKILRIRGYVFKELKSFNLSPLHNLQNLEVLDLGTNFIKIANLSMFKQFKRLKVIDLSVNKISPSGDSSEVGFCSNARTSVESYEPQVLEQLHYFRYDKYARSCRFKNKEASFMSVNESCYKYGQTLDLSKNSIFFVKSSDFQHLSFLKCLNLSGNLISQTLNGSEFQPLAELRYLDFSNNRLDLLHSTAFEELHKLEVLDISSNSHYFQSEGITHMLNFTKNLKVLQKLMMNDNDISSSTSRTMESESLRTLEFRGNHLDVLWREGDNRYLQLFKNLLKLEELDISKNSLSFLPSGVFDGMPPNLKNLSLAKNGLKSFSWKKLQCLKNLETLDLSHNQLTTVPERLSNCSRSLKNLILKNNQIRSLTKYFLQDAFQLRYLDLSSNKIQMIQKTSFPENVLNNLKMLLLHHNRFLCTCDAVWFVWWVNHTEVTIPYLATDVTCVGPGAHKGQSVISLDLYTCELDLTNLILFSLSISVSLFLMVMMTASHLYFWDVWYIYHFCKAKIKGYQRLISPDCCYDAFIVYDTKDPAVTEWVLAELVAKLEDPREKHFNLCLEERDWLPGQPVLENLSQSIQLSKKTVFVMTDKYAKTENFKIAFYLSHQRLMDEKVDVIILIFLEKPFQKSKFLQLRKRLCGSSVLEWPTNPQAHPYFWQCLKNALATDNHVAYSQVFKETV
# Test: HEK293-Blue-hTLR-7 cells assay
# Format: cell-based
# Details: HEK293-Blue-hTLR7 cells, R848 stimulation, 20 hrs; read-out: HEK/hTLR7 IC50
# Source text: A stable HEK293-Blue-hTLR-7 cell line was purchased from InvivoGen (Cat. #: hkb-htlr7, San Diego, California, USA). These cells were originally designed for studying the stimulation of human TLR7 by monitoring the activation of NF-κB. A SEAP (secreted embryonic alkaline phosphatase) reporter gene was placed under the control of the IFN-β minimal promoter fused to five NF-κB and AP-1-binding sites. The SEAP was induced by activating NF-κB and AP-1 via stimulating HEK-Blue hTLR7 cells with TLR7 ligands. Therefore the reporter expression was declined by TLR7 antagonist under the stimulation of a ligand, such as R848 (Resiquimod), for incubation of 20 hrs. The cell culture supernatant SEAP reporter activity was determined using QUANTI-Blue™ kit (Cat. #: rep-qbl, Invivogen, San Diego, Ca, USA) at a wavelength of 640 nm, a detection medium that turns purple or blue in the presence of alkaline phosphatase.
# HEK293-Blue-hTLR7 cells were incubated at a density of 250,000-450,000 cells/mL in a volume of 170 μL in a 96-well plate in Dulbecco's Modified Eagle's medium (DMEM) containing 4.5 g/L glucose, 50 U/mL penicillin, […] streptomycin, […] Normocin, […] L-glutamine, 10% […] heat-inactivated fetal bovine serum with addition of 20 μL test compound in a serial dilution in the presence of final DMSO at 1% and 10 μL of 20 μM R848 in above DMEM, perform incubation under 37° C. in a CO2 incubator for 20 hrs. Then 20 μL of the supernatant from each well was incubated with 180 μL Quanti-blue substrate solution at 37° C. for 2 hrs and the absorbance was read at […] using a spectrophotometer. The signaling pathway that TLR7 activation leads to downstream NF-κB activation has been widely accepted, and therefore similar reporter assay was modified for evaluating TLR7 antagonist.
row,SMILES,IC50 [nM]
1,"Cc1cc(N2CC[C@@H](c3ncc(N4CC[C@@H](N)[C@H](F)C4)cc3C)[C@H](C)C2)c2cnn(C)c2n1 [Example 31, (3R,4R)-1-[6-[(3S,4R)-1-(1,6-dimethylpyrazolo[3,4-b]pyridin-4-yl)-3-methyl-4-piperidyl]-5-methyl-3-pyridyl]-3-fluoro-piperidin-4-amine]",5
2,"Cc1cc(N2CC[C@@H](c3ncc(N4CC(C)(N)C4)cc3C)[C@H](C)C2)c2cnn(C)c2n1 [Example 32, 1-[6-[(3S,4R)-1-(1,6-dimethylpyrazolo[3,4-b]pyridin-4-yl)-3-methyl-4-piperidyl]-5-methyl-3-pyridyl]-3-methyl-azetidin-3-amine]",8
3,"Cc1cc(N2CC[C@H](c3ccc(N4CCNCC4)cn3)[C@@H](C)C2)c2cnn(C)c2n1 [Example 35, 1,6-dimethyl-4-[(3R,4S)-3-methyl-4-(5-piperazin-1-yl-2-pyridyl)-1-piperidyl]pyrazolo[3,4-b]pyridine]",6
4,"Cc1cc(N2CC[C@H](c3ccc(N4CC5(CNCCO5)C4)cn3)[C@@H](C)C2)c2cnn(C)c2n1 [Example 38, 2-[6-[(3R,4S)-1-(1,6-dimethylpyrazolo[3,4-b]pyridin-4-yl)-3-methyl-4-piperidyl]-3-pyridyl]-5-oxa-2,8-diazaspiro[3.5]nonane]",13
5,"Cc1cc(N2CC[C@H](c3ccc(N4CC[C@@H](N)[C@H](F)C4)cn3)[C@@H](C)C2)c2cnn(C)c2n1 [Example 41, (3R,4R)-1-[6-[(3R,4S)-1-(1,6-dimethylpyrazolo[3,4-b]pyridin-4-yl)-3-methyl-4-piperidyl]-3-pyridyl]-3-fluoro-piperidin-4-amine]",6
6,"Cc1cc(N2CC[C@H](c3ccc(N4CC(C)(N)C4)cn3)[C@@H](C)C2)c2cnn(C)c2n1 [Example 43, 1-[6-[(3R,4S)-1-(1,6-dimethylpyrazolo[3,4-b]pyridin-4-yl)-3-methyl-4-piperidyl]-3-pyridyl]-3-methyl-azetidin-3-amine]",16

# Further compounds by falling IC50, results first:
row,IC50 [nM],SMILES
1,82,"Cc1cc(N2CC[C@@H](c3ccc(N4CCNCC4)cn3)[C@H](C)C2)c2cnn(C)c2n1 [Example 34, 1,6-dimethyl-4-[(3S,4R)-3-methyl-4-(5-piperazin-1-yl-2-pyridyl)-1-piperidyl]pyrazolo[3,4-b]pyridine]"
2,18,"CO[C@@H]1CN(c2ccc([C@H]3CCN(c4cc(C)nc5c4cnn5C)C[C@@H]3C)nc2)C[C@H]1N [Example 36, (3R,4R)-1-[6-[(3R,4S)-1-(1,6-dimethylpyrazolo[3,4-b]pyridin-4-yl)-3-methyl-4-piperidyl]-3-pyridyl]-4-methoxy-pyrrolidin-3-amine]"
3,12,"CO[C@H]1CN(c2ccc([C@H]3CCN(c4cc(C)nc5c4cnn5C)C[C@@H]3C)nc2)CC[C@@H]1N [Example 39, (3S,4S)-1-[6-[(3R,4S)-1-(1,6-dimethylpyrazolo[3,4-b]pyridin-4-yl)-3-methyl-4-piperidyl]-3-pyridyl]-3-methoxy-piperidin-4-amine]"
4,11,"Cc1cc(N2CC[C@@H](c3ncc(N4C[C@H]5NCCO[C@@H]5C4)cc3C)[C@H](C)C2)c2cnn(C)c2n1 [Example 33, (4aR,7aR)-6-[6-[(3S,4R)-1-(1,6-dimethylpyrazolo[3,4-b]pyridin-4-yl)-3-methyl-4-piperidyl]-5-methyl-3-pyridyl]-3,4,4a,5,7,7a-hexahydro-2H-pyrrolo[3,4-b][1,4]oxazine]"
5,9,"COC[C@H]1CN(c2ccc([C@H]3CCN(c4cc(C)nc5c4cnn5C)C[C@@H]3C)nc2)CCN1 [Example 37, 4-[(3R,4S)-4-[5-[(3R)-3-(methoxymethyl)piperazin-1-yl]-2-pyridyl]-3-methyl-1-piperidyl]-1,6-dimethyl-pyrazolo[3,4-b]pyridine]"
6,9,"Cc1cc(N2CC[C@H](c3ccc(N4CCOC[C@@H](N)C4)cn3)[C@@H](C)C2)c2cnn(C)c2n1 [Example 40, (6S)-4-[6-[(3R,4S)-1-(1,6-dimethylpyrazolo[3,4-b]pyridin-4-yl)-3-methyl-4-piperidyl]-3-pyridyl]-1,4-oxazepan-6-amine]"
7,5,"COC[C@H]1CN(c2cnc([C@@H]3CCN(c4cc(C)nc5c4cnn5C)C[C@H]3C)c(C)c2)CCN1 [Example 29, 4-[(3S,4R)-4-[5-[(3R)-3-(methoxymethyl)piperazin-1-yl]-3-methyl-2-pyridyl]-3-methyl-1-piperidyl]-1,6-dimethyl-pyrazolo[3,4-b]pyridine]"
